Test results: patent US5622962A, “5α-reductase inhibitors” (priority 1995, dated 1997)
Where two headings read alike, the source gives them in different places.

Tests used:
[1] = target: T1, Type II 5α-Reductase from Human Prostate (Homo sapiens, UniProt P31213); assay: Human Type II 5α-reductase assay (conversion of [3H]-testosterone to 5α-reduced metabolites); format: biochemical
T1 construct: The same procedure as above was used for preparations using tissue from prostate surgery; from tissue; host or cells: human prostate tissue from surgery, homogenate, 100,000×g pellet
T1 sequence (P31213 1-254): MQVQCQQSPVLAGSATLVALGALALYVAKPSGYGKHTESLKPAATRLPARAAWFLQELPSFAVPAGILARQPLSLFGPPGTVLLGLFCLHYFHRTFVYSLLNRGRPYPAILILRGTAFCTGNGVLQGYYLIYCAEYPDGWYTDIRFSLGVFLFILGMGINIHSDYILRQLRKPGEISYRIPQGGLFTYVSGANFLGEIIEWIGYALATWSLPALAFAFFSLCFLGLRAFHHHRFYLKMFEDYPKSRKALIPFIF

[2] = target: T2, Type I 5α-Reductase from Human Scalp (Homo sapiens, UniProt P18405); assay: Human Type I 5α-reductase assay (conversion of [3H]-testosterone to 5α-reduced metabolites); format: biochemical
T2 construct: Scalp punch biopsies from graft recipient sites were obtained from human hair transplant procedures; from tissue; host or cells: human scalp punch biopsies (hair transplant graft recipient sites), homogenate, 100,000×g pellet
T2 sequence (P18405 1-259): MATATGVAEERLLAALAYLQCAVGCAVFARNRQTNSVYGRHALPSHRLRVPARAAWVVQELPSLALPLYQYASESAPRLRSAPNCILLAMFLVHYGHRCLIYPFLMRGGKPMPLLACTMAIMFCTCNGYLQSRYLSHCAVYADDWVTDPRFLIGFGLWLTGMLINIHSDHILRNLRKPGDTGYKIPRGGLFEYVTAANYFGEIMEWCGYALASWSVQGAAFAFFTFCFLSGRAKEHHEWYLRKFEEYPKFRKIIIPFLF

[3] = pH 5.5, 0.3 μM, sodium acetate pH 5.5, 25°, 30 min, compared to control reaction mixtures, read-out: percent inhibition of Type II AR
[4] = pH 7.5, 0.3 μM, 50 nM [3H]-testosterone, pH 7.5, 25°, 180 min, compared to control reaction mixtures, read-out: percent inhibition of Type I AR

Row | inhibition at 0.3 µM [1, 3] [%] | inhibition at 0.3 µM [2, 4] [%] | SMILES | further results
1 | 47 | 56 | CN1C(=O)CC[C@]2(C)c3ccc(-c4nc5cc(Cl)c(Cl)cc5s4)cc3CC[C@@H]12 [Example 263, (+)-(4aR)-(10bR)-4-methyl-8-(2-[5,6-dichloro]benzothiazolyl)-10b-methyl-1,2,3,4,4a,5,6,10b-octahydrobenzo[f]quinolin-3-one] | 
2 | 37 | 100 | CN1C(=O)CC[C@]2(C)c3ccc(-c4c(F)c(F)c(F)c(F)c4F)cc3CC[C@@H]12 [Example 205, (+)-(4aR)-(10bR)-4-methyl-8-(2,3,4,5,6-pentafluorophenyl)-10b-methyl-1,2,3,4,4a,5,6,10b-octahydrobenzo[f]quinolin-3-one] | 
3 | 40 | 78 | CN1C(=O)CC[C@]2(C)c3ccc(-c4nc5ccc(Cl)cc5s4)cc3CC[C@@H]12 [Example 265, (+)-(4aR)-(10bR)-4-methyl-8-(2-[6-chloro]benzothiazolyl)-10b-methyl-1,2,3,4,4a,5,6,10b-octahydrobenzo[f]quinolin-3-one] | 
4 | 24 | 5 | CN1C(=O)CC[C@]2(C)c3ccc(-c4ccccn4)cc3CC[C@@H]12 [Example 242, (+)-(4aR)-(10bR)-4-methyl-8-(2-pyridinyl)-10b-methyl-1,2,3,4,4a,5,6,10b-octahydrobenzo[f]quinolin-3-one] | 
5 | 27 | 94 | CN1C(=O)CC[C@]2(C)c3ccc(-c4ccc(F)c(F)c4F)cc3CC[C@@H]12 [Example 232, (+)-(4aR)-(10bR)-4-methyl-8-(2,3,4-trifluorophenyl)-10b-methyl-1,2,3,4,4a,5,6,10b-octahydrobenzo[f]quinolin-3-one] | 
6 | 26 | 16 | Cc1ccc2ccccc2c1-c1ccc2c(c1)CC[C@H]1N(C)C(=O)CC[C@]21C [Example 72, (+)-(4aR)-(10bR)-4-methyl-8-(1-[2-methyl]naphthyl)-10b-methyl-1,2,3,4,4a,5,6,10b-octahydrobenzo[f]quinolin-3-one] | 
7 | 6 | 84 | Cc1cccc(-c2ccc3c(c2)CC[C@H]2N(C)C(=O)CC[C@]32C)c1C [Example 69, (+)-(4aR)-(10bR)-4-methyl-8-(2,3-dimethylphenyl)-10b-methyl-1,2,3,4,4a,5,6,10b-octahydrobenzo[f]quinolin-3-one] | 
8 | 78 | 65 | CN1C(=O)CC[C@]2(C)c3ccc(Sc4ccc5cc(F)ccc5n4)cc3CC[C@@H]12 [Example 173, (+)-(4aR)-(10bR)-4-methyl-8-(6-fluoro-2-quinolinylthio)-10b-methyl-1,2,3,4,4a,5,6,10b-octahydrobenzo[f]quinolin-3-one] | percent inhibition of Type II AR ([1]; 0.3 μM, sodium acetate pH 5.5, 25°, 30 min, compared to control reaction mixtures): 77%
9 | 25 | 97 | CN1C(=O)CC[C@]2(C)c3ccc(Sc4cccc(F)c4)cc3CC[C@@H]12 [Example 109, (+)-(4aR)-(10bR)-4,10b-dimethyl-8-(3-fluorophenylthio)-1,2,3,4,4a,5,6,10b-octahydrobenzo[f]quinolin-3-one] | 

Continued, compound first:

Row | SMILES | inhibition at 0.3 µM [1, 3] [%] | inhibition at 0.3 µM [2, 4] [%] | further results
10 | C[C@]12CCC(=O)N[C@@H]1CCc1cc(Sc3ccc(F)cc3)ccc12 [Example 14, (+)-(4aR)-(10bR)-8-(4-fluorophenylthio)-10b-methyl-1,2,3,4,4a,5,6,10b-octahydrobenzo[f]quinolin-3-one] | 25 | 37 | 
11 | CN1C(=O)CC[C@]2(C)c3ccc(-c4ccc(NC(=O)C(C)(C)C)nc4)cc3CC[C@@H]12 [Example 215, (+)-(4aR)-(10bR)-4-methyl-8-[2-(t-butylcarbonylamino)-5-pyridinyl]-10b-methyl-1,2,3,4,4a,5,6,10b-octahydrobenzo[f]-quinolin-3-one] | 42 | 84 | 
12 | COc1ccc2nc(Sc3ccc4c(c3)CC[C@H]3N(C)C(=O)CC[C@]43C)sc2c1 [Example 161, (+)-(4aR)-(10bR)-4-methyl-8-(6-methoxy-2-benzothiazolylthio)-10b-methyl-1,2,3,4,4a,5,6,10b-octahydrobenzo[f]quinolin-3-one] | 51 | 71 | 
13 | CN1C(=O)CC[C@]2(C)c3ccc(Sc4ccc(-c5ccccc5)nn4)cc3CC[C@@H]12 [Example 171, (+)-(4aR)-(10bR)-4-methyl-8-(6-phenyl-3-pyridazinylthio)-10b-methyl-1,2,3,4,4a,5,6,10b-octahydrobenzo[f]quinolin-3-one] | 63 | 43 | 
14 | CN1C(=O)CC[C@]2(C)c3ccc(Sc4cccc5ccccc45)cc3CC[C@@H]12 [Example 103, (+)-(4aR)-(10bR)-4,10b-dimethyl-8-(1-naphthylthio)-1,2,3,4, -4a,5,6,10b-octahydrobenzo[f]quinolin-3-one] | 58 | 81 | 
15 | CN1C(=O)CC[C@]2(C)c3ccc(Sc4cnc5ccccc5c4)cc3CC[C@@H]12 [Example 106, (4aR)-(10bR)-4,10b-dimethyl-8-(3-quinolinylthio)-1,2,3,4,4a,5,6,10b-octahydrobenzo[f]quinolin-3-one] | 39 | 73 | 
16 | CN1C(=O)CC[C@]2(C)c3ccc(-c4nnnn4-c4ccccc4)cc3CC[C@@H]12 [Example 258, (+)-(4aR)-(10bR)-4-methyl-8-(2-[3-phenyl]tetrazolyl)-10b-methyl-1,2,3,4,4a,5,6,10b-octahydrobenzo[f]quinolin-3-one] | 16 | 27 | 
17 | CN1C(=O)CC[C@]2(C)c3ccc(Sc4cnccn4)cc3CC[C@@H]12 [Example 152, (+)-(4aR)-(10bR)-4-methyl-8-(2-pyrazinylthio)-10b-methyl-1,2,3,4,4a,5,6,10b-octahydrobenzo[f]quinolin-3-one] | 10 | 47 | 
18 | CN1C(=O)CC[C@]2(C)c3ccc(NC(=O)c4cccc(N)c4)cc3CC[C@@H]12 [Example 270, (4aR)-(10bR)-4,10b-dimethyl-8-(3-aminobenzoylamino)-1,2,3,4,4a,5,6,10b-octahydrobenzo[f]quinolin-3-one] | 13 | 18 | 
19 | CN1C(=O)CC[C@]2(C)c3ccc(-c4cc5ccccc5c5ccccc45)cc3CC[C@@H]12 [Example 67, (+)-(4aR)-(10bR)-4-methyl-8-(9-phenanthrenyl)-10b-methyl-1,2,3,4,4a,5,6,10b-octahydrobenzo[f]quinolin-3-one] |  |  | inhibition at 0.3 µM ([1]; pH 5.5, read-out: percent inhibition of Type II AR): 54%; inhibition at 0.3 µM ([2]; pH 7.5, read-out: percent inhibition of Type I AR): 22%
20 | CN1C(=O)CC[C@]2(C)c3ccc(-c4cc(C(C)(C)C)c(O)c(C(C)(C)C)c4)cc3CC[C@@H]12 [Example 30, (+)-(4aR)-(10bR)-4-methyl-8-(3,5-di [t-butyl]-4-hydroxyphenyl)-10b-methyl-1,2,3,4,4a,5,6,10b-octahydrobenzo[f]quinolin-3-one] | 21 | 19 | 
21 | CN1C(=O)CC[C@]2(C)c3ccc(CCc4ccccc4)cc3CC[C@@H]12 [Example 280, (4aR)-(10bR)-4,10b-dimethyl-8-(2-phenylethyl)-1,2,3,4,4a,5,6,10b-octahydrobenzo[f]quinolin-3-one] | 33 | 97 | percent inhibition of Type I AR ([2]; 0.3 μM, 50 nM [3H]-testosterone, pH 7.5, 25°, 180 min, compared to control reaction mixtures): 100%
22 | Cc1ccccc1Sc1ccc2c(c1)CC[C@H]1N(C)C(=O)CC[C@]21C [Example 101, (+)-(4aR)-(10bR)-4,10b-dimethyl-8-(2-methylphenylthio)-1,2,3,4,-4a,5,6,10b-octahydrobenzo[f]quinolin-3-one] | 43 | 75 | 
23 | CN1C(=O)CC[C@]2(C)c3ccc(-c4ccc(COc5ccc(F)cc5)s4)cc3CC[C@@H]12 [Example 129, (+)-(4aR)-(10bR)-4-methyl-8-(2-[5-(4-fluorophenoxy-methyl)thienyl])-10b-methyl-1,2,3,4,4a,5,6,10b-octahydrobenzo[f]-quinolin-3-one] | 36 | 91 | 
24 | CN1C(=O)CC[C@]2(C)c3ccc(-c4cccc(C(=O)NC5CCN(Cc6ccccc6)CC5)c4)cc3CC[C@@H]12 [Example 209, (+)-(4aR)-(10bR)-4-methyl-8-(3-[1-benzyl-4-piperidinylcarboxamido]phenyl)-10b-methyl-1,2,3,4,4a,5,6,10b-octahydrobenzo[f]quinolin-3-one] | 11 | 24 | 
25 | COc1ccccc1Sc1ccc2c(c1)CC[C@H]1NC(=O)CC[C@]21C [Example 12, (+)-(4aR)-(10bR)-8-(2-methoxyphenylthio)-10b-methyl-1,2,3,4,4a,5,6,10b-octahydrobenzo[f]quinolin-3-one] | 22 | 16 | 
